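Grown in 96-well plates, cells were treated for 48 hours with each compound at five concentrations. Insufficient inhibition: endpoint recorded as highest concentration tested. TGI denotes the concentration required for complete inhibition of growth.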

Among the test systems are RPMI-8226 leukemia; NCI-H460 lung; RXF 393 renal; SNB-19 CNS; M14 melanoma; BT-549 breast; HOP-62 NSCLC; UO-31 renal; SF-268 CNS; OVCAR-3 ovarian; MDA-MB-435; HS 578T breast; MOLT-4 leukemia; KM12 colon; OVCAR-4 ovarian; T-47D breast; NCI-H522 lung; HL-60(TB) leukemia.
Common to all, as to assay: NCI tumour cell line growth inhibition, 48 h

For the compound `COc1cccc(-c2ccc3c4c2O[C@H]2c5[nH]c6ccccc6c5C[C@@]5(O)[C@@H](C3)N(CC3CC3)CC[C@]425)c1`, the TGI with RPMI-8226 leukemia turned out to be 5.25 µM; with NCI-H460 lung, 3.22 µM; in the assay with RXF 393 renal, 3.03 µM; with SNB-19 CNS, 4.23 µM; with M14 melanoma, 3.27 µM; in the assay on BT-549 breast, 15.9 µM. Besides, the TGI turned out to be 3.12 µM in the assay on HOP-62 NSCLC; 3.1 µM in the assay with UO-31 renal; 3.37 µM with SF-268 CNS; 3.3 µM in the assay on OVCAR-3 ovarian; 3.18 µM in the assay on MDA-MB-435; 3.33 µM with HS 578T breast. In addition, the TGI with MOLT-4 leukemia was 9.34 µM; in the assay on KM12 colon, 3.26 µM; in the assay on OVCAR-4 ovarian, 3.27 µM; in the assay with T-47D breast, 4.23 µM.
Take `NC(=O)c1nnc2cc(F)ccc2c1N`: the TGI in the assay on RPMI-8226 leukemia, in the assay with NCI-H522 lung, in the assay with NCI-H460 lung, with SNB-19 CNS, in the assay on M14 melanoma and in the assay with HL-60(TB) leukemia was over 100 µM each time. The TGI in the assay with BT-549 breast, with HOP-62 NSCLC, with UO-31 renal, with SF-268 CNS, in the assay on OVCAR-3 ovarian and in the assay with MDA-MB-435 was over 100 µM in each case. In addition, the TGI with HS 578T breast, in the assay with MOLT-4 leukemia, with KM12 colon, with OVCAR-4 ovarian and in the assay with T-47D breast was over 100 µM throughout.
Consider `CCOC(=O)/C(=C\c1ccc(N(C)C)cc1)S(=O)(=O)C(F)(F)C(F)(F)C(F)(F)C(F)(F)F`, for which the TGI with RPMI-8226 leukemia, with NCI-H522 lung, in the assay on NCI-H460 lung, with SNB-19 CNS, in the assay with M14 melanoma and in the assay with HL-60(TB) leukemia was over 100 µM in each case. The TGI in the assay with BT-549 breast, in the assay on HOP-62 NSCLC, in the assay with UO-31 renal, with SF-268 CNS, with OVCAR-3 ovarian and in the assay on MDA-MB-435 was over 100 µM in each case. The TGI in the assay on HS 578T breast, in the assay with MOLT-4 leukemia, in the assay with KM12 colon, in the assay with OVCAR-4 ovarian and with T-47D breast was over 100 µM each time.
Consider `O=C(NCCC(F)(F)C(F)(F)C(F)(F)C(F)(F)F)NC1OC(CO)C(O)C(O)C1O` (stereo not drawn), for which the TGI in the assay on RPMI-8226 leukemia, with NCI-H460 lung, with RXF 393 renal, in the assay with SNB-19 CNS, in the assay with M14 melanoma and with HL-60(TB) leukemia was over 100 µM throughout. Also, the TGI in the assay with BT-549 breast, in the assay on HOP-62 NSCLC, in the assay on UO-31 renal, in the assay with SF-268 CNS, with OVCAR-3 ovarian and with MDA-MB-435 was over 100 µM each time. In addition, the TGI with HS 578T breast, in the assay with MOLT-4 leukemia, with KM12 colon, in the assay with OVCAR-4 ovarian and with T-47D breast was over 100 µM throughout.
Regarding `O=C(CN1CCN(Cc2ccccc2)CC1)N1CCCn2c1nc1ccccc1c2=O`, the TGI with RPMI-8226 leukemia, in the assay with NCI-H522 lung, in the assay with NCI-H460 lung, with SNB-19 CNS, in the assay on M14 melanoma and with HL-60(TB) leukemia was over 100 µM throughout. The TGI in the assay on BT-549 breast, with HOP-62 NSCLC, in the assay on UO-31 renal, in the assay with SF-268 CNS, with OVCAR-3 ovarian and with MDA-MB-435 was over 100 µM throughout. Further, the TGI in the assay with HS 578T breast, with MOLT-4 leukemia, in the assay on KM12 colon, in the assay on OVCAR-4 ovarian and with T-47D breast was over 100 µM throughout.
For `CN(C)c1nc(NC23CC4CC(CC(C4)C2)C3)nc(N(C)C)n1`, the TGI in the assay with RPMI-8226 leukemia was 12.7 µM; in the assay on NCI-H460 lung, over 100 µM; with RXF 393 renal it was 17.7 µM; in the assay with SNB-19 CNS, over 40.1 µM; with M14 melanoma, over 57.9 µM; in the assay on HL-60(TB) leukemia it was 13.5 µM. Besides, the TGI in the assay on BT-549 breast is over 100 µM; in the assay on HOP-62 NSCLC, over 90.4 µM; with UO-31 renal it was over 77.2 µM; in the assay on SF-268 CNS, over 100 µM; in the assay with OVCAR-3 ovarian it was over 76.2 µM; in the assay with MDA-MB-435, over 100 µM. Moreover, the TGI with HS 578T breast was 56 µM; in the assay on MOLT-4 leukemia, over 57.3 µM; in the assay with KM12 colon it was over 100 µM; with OVCAR-4 ovarian it was over 100 µM; in the assay with T-47D breast, 49.6 µM.
Turning to `COc1cc(C2SCC(=O)N2c2ccc(-n3c(-c4ccccc4)nc4ccccc4c3=O)cc2)ccc1O` (stereo not drawn), the TGI in the assay on RPMI-8226 leukemia, with NCI-H522 lung, in the assay with NCI-H460 lung, in the assay on SNB-19 CNS, in the assay with M14 melanoma and with HL-60(TB) leukemia was over 100 µM in each case. In addition, the TGI is over 100 µM in the assay with BT-549 breast; over 100 µM with HOP-62 NSCLC; 97.7 µM with UO-31 renal; over 100 µM in the assay with SF-268 CNS; over 100 µM in the assay on OVCAR-3 ovarian; over 100 µM in the assay on MDA-MB-435. Moreover, the TGI in the assay with HS 578T breast, in the assay with MOLT-4 leukemia, in the assay on KM12 colon, in the assay on OVCAR-4 ovarian and in the assay on T-47D breast was over 100 µM in each case.

Source of the values: PubChem BioAssay (NCI).
